Reference: PubChem BioAssay (NCI)
Where “and” joins values, the source holds several entries; their conditions need not be identical. Identical values can stand only once.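 Assay format: 96-well plates, 48-hour exposure. TGI: total growth inhibition.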

Key:
Experiment in all cases: NCI-60 cell line screen, 48 h
786-0 renal = tested on: 786-0 renal
A498 renal = tested on: A498 renal
CCRF-CEM leukemia = tested on: CCRF-CEM leukemia
DMS 273 small cell lung = tested on: DMS 273 small cell lung
HOP-92 NSCLC = tested on: HOP-92 NSCLC
KM20L2 colon = tested on: KM20L2 colon
M19-MEL melanoma = tested on: M19-MEL melanoma
SF-268 CNS = tested on: SF-268 CNS
TK-10 renal = tested on: TK-10 renal
UO-31 renal = tested on: UO-31 renal
HL-60(TB) leukemia = tested on: HL-60(TB) leukemia

Structure (SMILES)	TGI (786-0 renal)	TGI (A498 renal)	TGI (CCRF-CEM leukemia)	TGI (DMS 273 small cell lung)	TGI (HOP-92 NSCLC)	TGI (KM20L2 colon)	TGI (M19-MEL melanoma)	TGI (SF-268 CNS)	TGI (TK-10 renal)	TGI (UO-31 renal)	TGI (HL-60(TB) leukemia)
COc1ccc(/C=C2\C(=O)N(NC(C)=O)c3ccccc32)cc1	> 100 µM	> 100 µM	> 100 µM	> 100 µM	> 100 µM	> 100 µM	> 100 µM	> 100 µM	> 100 µM	> 100 µM	
COc1ccc2c(C(=O)O)cc3ccccc3c2c1OC	31.1 µM	40.7 µM	88.4 µM	53.4 µM	44.3 µM	58.1 µM	61 µM	41.4 µM	33.2 µM	30.9 µM	> 100 µM
O=[N+]([O-])c1ccc(-c2ccc(C3=Nn4c(CNc5ccccc5Cl)nnc4SC3)o2)cc1	> 100 µM			> 100 µM	> 100 µM	> 100 µM	> 100 µM	> 100 µM	> 100 µM	> 100 µM	> 100 µM
Cn1c(=O)c2nc3sc4c(n3c2n(C)c1=O)C(=O)c1ccccc1C4=O	> 78.2 µM	> 100 µM	> 50.3 µM	> 100 µM	> 42.7 µM	> 100 µM	> 100 µM	> 100 µM	> 100 µM	> 76 µM	45.3 µM
O=C(NCCc1ccccc1)C1C(=O)C(=O)N(CCc2ccccc2)C1=O (stereo not drawn)	> 100 µM		> 100 µM	> 100 µM	> 100 µM	> 100 µM	> 100 µM	> 100 µM	> 100 µM	> 100 µM	> 100 µM
c1ccc(C(c2ccccc2)c2ccccn2)cc1	> 100 µM	> 100 µM	> 100 µM	> 100 µM		> 100 µM	> 100 µM	> 100 µM	> 100 µM	> 100 µM	
CCOC(=O)C1=C(NC)OCC1=O	> 100 µM	> 100 µM	> 100 µM	> 100 µM	> 100 µM	> 100 µM	> 100 µM	> 100 µM	> 100 µM	> 100 µM	> 100 µM
COc1cc(/C=C2\NC(=O)C(Cc3cc(OC)c(OC)c(C)c3OC)N(C(C)=O)C2=O)c(OC)c(C)c1OC (stereo not drawn)	> 100 µM	> 100 µM	> 100 µM	> 100 µM	> 100 µM	> 100 µM	> 100 µM	> 100 µM	> 100 µM	> 100 µM	69.9 µM
O=NN(CCCl)C(=O)NC1CCC(CC(=O)O)CC1 (stereo not drawn)	> 100 µM	> 100 µM	> 100 µM and 62.2 µM	> 100 µM	> 100 µM	> 100 µM	> 100 µM	> 100 µM	> 100 µM	> 100 µM	> 100 µM
O=C1C2C3C=CC(C2C(=O)N1CO)C1C2C(=O)N(CO)C(=O)C2C31 (stereo not drawn)	> 58.6 µM	> 100 µM	> 59.3 µM	> 59.1 µM	> 100 µM	> 31.6 µM	> 100 µM	> 79 µM	> 100 µM	> 100 µM	
CC(=O)Nc1ccc(C2CC(c3ccc([N+](=O)[O-])cc3)=Nc3ccccc3S2=O)cc1 (stereo not drawn)	22.6 µM		31.8 µM	35.8 µM		57.5 µM	38 µM	> 100 µM	64.7 µM	46.5 µM	42.2 µM
O=C1NC(=O)C2C(=O)NC(=O)C1C2Cc1ccco1 (stereo not drawn)	> 100 µM	> 100 µM	> 100 µM	> 100 µM	> 100 µM	> 100 µM	> 100 µM	> 100 µM	> 100 µM	> 100 µM	> 100 µM
CC1NOC(=O)C1N=Nc1ccc(Cl)cc1Cl (stereo not drawn)	41.9 µM	99.5 µM	> 100 µM	56.8 µM	44.3 µM	> 100 µM	64.3 µM	81.7 µM	62.7 µM	51 µM	44.8 µM
NC(N)=NCCCC(NCc1c2ccccc2nc2ccccc12)C(=O)O (stereo not drawn)	> 100 µM	> 100 µM	75.1 µM	> 100 µM	> 83.5 µM	86.7 µM	> 100 µM	> 100 µM	> 100 µM	> 100 µM	44.1 µM
COC(=O)C1=C(C(=O)OC)C2(c3ccccc3)OC1(c1ccccc1)c1cc3ccccc3cc12	2.7 µM		4.55 µM	3.7 µM	2.44 µM	3.76 µM	4.22 µM	3.77 µM	3.56 µM	2.77 µM	1.84 µM
COc1ccc2nc(NC(=O)C(=O)CC(=O)c3ccc([N+](=O)[O-])cc3)sc2c1	> 100 µM	> 100 µM	> 100 µM	> 100 µM	> 100 µM	> 100 µM	> 100 µM	> 100 µM		> 100 µM	
CCOC(=O)C1(C)CCC(C(C(=O)O)C(=O)O)CC1=O (stereo not drawn)	> 100 µM	> 100 µM	> 100 µM	> 100 µM	> 100 µM	> 100 µM	> 100 µM	> 100 µM	> 100 µM	> 100 µM	> 100 µM
N#CC1CC(c2ccccc2)Nc2cc(Cl)ccc2N1 (stereo not drawn)	> 100 µM	> 100 µM	> 100 µM	> 100 µM	> 100 µM	> 100 µM	> 100 µM	> 100 µM	> 100 µM	> 100 µM	> 100 µM
CC(=O)OCC(=O)[C@@]1(O)CC[C@H]2[C@@H]3C[C@H](C)C4=CC(=O)C=C[C@]4(C)[C@@]3(F)[C@@H](O)C[C@@]21C	> 100 µM		> 100 µM	> 100 µM	> 100 µM	> 100 µM	> 100 µM	> 100 µM	> 100 µM	> 100 µM	> 100 µM
CCc1cccc(CC)c1NC(=O)/C(Cl)=C(/Cl)C(=O)O	> 56.2 µM	> 100 µM	48.8 µM	> 85.8 µM	41.4 µM	> 71 µM	46.5 µM	64.1 µM	50.2 µM	47.3 µM	> 67.3 µM
Nc1nc(=S)c2c(ncn2CCO)[nH]1	> 100 µM	> 100 µM	> 100 µM	> 100 µM	> 100 µM	> 100 µM	> 100 µM	> 100 µM	> 100 µM	> 100 µM	> 100 µM
